Several values for one entry are separate records, joined by “and”; a condition that tells them apart may be missing. Equal entries are not always repeated.

For the experiment, the system named is NCI-H211 complex spheroid viability. The experiment is described as follows: Anticancer human tumor NCI-H211 cell line growth inhibition [LSD1].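 For all read-outs here: luminescent viability read after seven days of drug exposure.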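 For viability, T/C: 100% = DMSO vehicle control viability.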 The note with it: for viability, T/C: stronger effect = lower value. In outline: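 Complex spheroids of tumor cells with HUVEC and human MSCs, exposed to iadademstat combined with other agents. Each agent tested in half-log steps from near clinical Cmax (else 10 microM top), DMSO ≤0.25%.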

[1] abbreviates: curve of first compound, second compound 0.1 µM.
Setting [2] is: curve of first compound, second compound 0.316 µM.
Where [3] appears, read: curve of first compound, second compound 1 µM.
Where [4] appears, read: curve of first compound, second compound 3.16 µM.
Where [5] appears, read: curve of first compound, second compound 10 µM.
[6] abbreviates: second compound 0.1 µM, first compound 0.000949 µM.
Where [7] appears, read: second compound 0.1 µM, first compound 0.003 µM.
[8] abbreviates: second compound 0.1 µM, first compound 0.00949 µM.
Where [9] appears, read: second compound 0.1 µM, first compound 0.03 µM.
[10] abbreviates: second compound 0.1 µM, first compound 0.0949 µM.
[11] abbreviates: second compound 0.1 µM, first compound 0.3 µM.
The mark [12] stands for this setting: second compound 0.316 µM, first compound 0.000949 µM.
Where [13] appears, read: second compound 0.316 µM, first compound 0.003 µM.
Setting [14] is: second compound 0.316 µM, first compound 0.00949 µM.
Setting [15] is: second compound 0.316 µM, first compound 0.03 µM.
[16] abbreviates: second compound 0.316 µM, first compound 0.0949 µM.
The mark [17] stands for this setting: second compound 0.316 µM, first compound 0.3 µM.
Where [18] appears, read: second compound 1 µM, first compound 0.000949 µM.
[19] abbreviates: second compound 1 µM, first compound 0.003 µM.
[20] abbreviates: second compound 1 µM, first compound 0.00949 µM.
The mark [21] stands for this setting: second compound 1 µM, first compound 0.03 µM.
Where [22] appears, read: second compound 1 µM, first compound 0.0949 µM.
The mark [23] stands for this setting: second compound 1 µM, first compound 0.3 µM.
[24] abbreviates: second compound 3.16 µM, first compound 0.000949 µM.
The mark [25] stands for this setting: second compound 3.16 µM, first compound 0.003 µM.
Where [26] appears, read: second compound 3.16 µM, first compound 0.00949 µM.
The mark [27] stands for this setting: second compound 3.16 µM, first compound 0.03 µM.
Setting [28] is: second compound 3.16 µM, first compound 0.0949 µM.
[29] abbreviates: second compound 3.16 µM, first compound 0.3 µM.
The mark [30] stands for this setting: second compound 10 µM, first compound 0.000949 µM.
Where [31] appears, read: second compound 10 µM, first compound 0.003 µM.
[32] abbreviates: second compound 10 µM, first compound 0.00949 µM.
Setting [33] is: second compound 10 µM, first compound 0.03 µM.
The mark [34] stands for this setting: second compound 10 µM, first compound 0.0949 µM.
Setting [35] is: second compound 10 µM, first compound 0.3 µM.

Usually IC50 stands for the concentration that gives 50% inhibition. As usually defined, the viability, T/C is the result in the treated group divided by that in the control group, in per cent. With `Nc1ccn(C2OC(CO)C(O)C2(F)F)c(=O)n1` (centres undefined) + NC1CCC(NC2CC2c2ccccc2)CC1, the IC50 under setting [1] is less than 0.949 nM; the IC50 under setting [2] was less than 0.949 nM; the concentration for half-maximal inhibition (IC50) under setting [3] is less than 0.949 nM; the IC50 under setting [4] was less than 0.949 nM; the IC50 under setting [5] is less than 0.949 nM. The viability, T/C was 2.51% under setting [6]; 2.16% under setting [7]; 2.36% under setting [8]; 1.86% under setting [9]; 2.26% under setting [10]; 2.41% under setting [11]. The viability, T/C under setting [12] is 2.59%; the viability, T/C under setting [13] is 2.18%; the viability, T/C under setting [14] is 2.35%; the viability, T/C under setting [15] is 2.12%; the viability, T/C under setting [16] is 2.8%; the viability, T/C under setting [17] is 2.37%. The viability, T/C is, setting by setting: under setting [18], 2.5%; under setting [19], 1.98%; under setting [20], 2.28%; under setting [21], 2.01%; under setting [22], 2.14%; under setting [23], 2.46%. The viability, T/C runs as follows: under setting [24], 2.06%; under setting [25], 3.05%; under setting [26], 2.05%; under setting [27], 1.95%; under setting [28], 2.15%; under setting [29], 2.13%. Also, the viability, T/C runs as follows: under setting [30], 1.03%; under setting [31], 0.96%; under setting [32], 1.05%; under setting [33], 0.79%; under setting [34], 0.64%; under setting [35], 1.61%.

As for `O=C(C=Cn1cnc(-c2cc(C(F)(F)F)cc(C(F)(F)F)c2)n1)NNc1cnccn1`, the viability, T/C by setting is: (compound 0.00316 µM) 45.9% and 53.7%; (compound 0.01 µM) 24% and 37.6%; (compound 0.0316 µM) 11.7% and 14.6%; (compound 0.1 µM) 4.91% and 5.02%; (compound 0.316 µM) 1.61% and 2.32%; (compound 1 µM) 1.37% and 2.1%. Moreover, the concentration for half-maximal inhibition (IC50) (curve of compound) is < 3.16 nM and 4.13 nM.

With `Nc1ncn(C2CC(O)C(CO)S2)c(=O)n1` (centres undefined) + NC1CC1c1ccc(-c2cccc(O)c2)cc1, the IC50 runs as follows: under setting [1], less than 0.949 nM; under setting [2], less than 0.949 nM; under setting [3], less than 0.949 nM; under setting [4], less than 0.949 nM; under setting [5], less than 0.949 nM. Further, the viability, T/C under setting [6] was 35.2%; the viability, T/C under setting [7] is 20.8%; the viability, T/C under setting [8] was 9.36%; the viability, T/C under setting [9] is 4.53%; the viability, T/C under setting [10] was 4.25%; the viability, T/C under setting [11] was 5.78%. Moreover, the viability, T/C was 35.8% under setting [12]; 16.6% under setting [13]; 8.03% under setting [14]; 5.12% under setting [15]; 5.19% under setting [16]; 5.71% under setting [17]. The viability, T/C under setting [18] was 40.5%; the viability, T/C under setting [19] is 17.2%; the viability, T/C under setting [20] is 8.75%; the viability, T/C under setting [21] is 4.16%; the viability, T/C under setting [22] is 4.46%; the viability, T/C under setting [23] was 6.59%. The viability, T/C under setting [24] was 31.3%; the viability, T/C under setting [25] was 15.9%; the viability, T/C under setting [26] is 8.59%; the viability, T/C under setting [27] is 5.64%; the viability, T/C under setting [28] was 5.95%; the viability, T/C under setting [29] is 4.49%. The viability, T/C is, setting by setting: under setting [30], 32.3%; under setting [31], 16.6%; under setting [32], 8.49%; under setting [33], 6.66%; under setting [34], 5.5%; under setting [35], 6.65%.

For the compound `CC1COCCN1c1cc(C2(S(C)(=N)=O)CC2)nc(-c2ccnc3[nH]ccc23)n1` (centres undefined) + NC1CCC(NC2CC2c2ccccc2)CC1, the half-maximal inhibitory concentration (IC50) runs as follows: under setting [1], 331 nM; under setting [2], 184 nM; under setting [3], 297 nM; under setting [4], 188 nM; under setting [5], less than 31.6 nM. Further, the viability, T/C was 67.7% (second compound 0.1 µM, first compound 0.0316 µM); 64.1% (second compound 0.1 µM, first compound 0.1 µM); 51.6% (second compound 0.1 µM, first compound 0.316 µM); 16.1% (second compound 0.1 µM, first compound 1 µM); 3.34% (second compound 0.1 µM, first compound 3.16 µM); 2.31% (second compound 0.1 µM, first compound 10 µM). The viability, T/C (second compound 0.316 µM, first compound 0.0316 µM) is 79.6%; the viability, T/C (second compound 0.316 µM, first compound 0.1 µM) was 63%; the viability, T/C (second compound 0.316 µM, first compound 0.316 µM) is 38.7%; the viability, T/C (second compound 0.316 µM, first compound 1 µM) was 13.6%; the viability, T/C (second compound 0.316 µM, first compound 3.16 µM) was 3.19%; the viability, T/C (second compound 0.316 µM, first compound 10 µM) was 2.33%. Further, the viability, T/C reads like this: (second compound 1 µM, first compound 0.0316 µM) 66.4%; (second compound 1 µM, first compound 0.1 µM) 67.5%; (second compound 1 µM, first compound 0.316 µM) 48.4%; (second compound 1 µM, first compound 1 µM) 16.4%; (second compound 1 µM, first compound 3.16 µM) 3.53%; (second compound 1 µM, first compound 10 µM) 2.09%. The viability, T/C was 66.5% (second compound 3.16 µM, first compound 0.0316 µM); 55.5% (second compound 3.16 µM, first compound 0.1 µM); 44.5% (second compound 3.16 µM, first compound 0.316 µM); 17.2% (second compound 3.16 µM, first compound 1 µM); 2.59% (second compound 3.16 µM, first compound 3.16 µM); 1.55% (second compound 3.16 µM, first compound 10 µM). For the same compound, the viability, T/C runs as follows: (second compound 10 µM, first compound 0.0316 µM) 40.9%; (second compound 10 µM, first compound 0.1 µM) 39%; (second compound 10 µM, first compound 0.316 µM) 25.4%; (second compound 10 µM, first compound 1 µM) 9.13%; (second compound 10 µM, first compound 3.16 µM) 1.75%; (second compound 10 µM, first compound 10 µM) 1.04%.

On to `Cn1ncnc1C1c2n[nH]c(=O)c3cc(F)cc(c23)NC1c1ccc(F)cc1` (centres undefined), for which the viability, T/C is, setting by setting: (compound 0.000316 µM) 102% and 103%; (compound 0.001 µM) 94.9% and 82.6%; (compound 0.00316 µM) 44.8% and 29%; (compound 0.01 µM) 5.27% and 6.62%; (compound 0.0316 µM) 8.07% and 5.97%; (compound 0.1 µM) 3.43% and 6.43%. For the setting “curve of compound”, the half-maximal inhibitory concentration (IC50) is 2.79 nM and 2.01 nM.

For the origin of these results see PubChem BioAssay AID1918940 (Molecular Pharmacology Branch, DTP, NCI, 2023).
